Data: US20260224555A1, “NEW PHENYLQUINOLONE COMPOUND HAVING ANTIBACTERIAL AND ANTI-CANCER FUNCTIONS AND PREPARATION THEREOF” (AlphaMol Science Ltd (Shanghai), priority 2022, published 2026)
In brackets after ≈: the same amount, converted by molar mass. Where two headings read alike, the source gives them in different places. Each block holds one compound with its values, some of them ahead of it.

How the values were obtained:
[1] = system: Hela; experiment: In vitro anticancer activity test (MTT cell proliferation); format: cell-based; conditions: Homo sapiens, average proliferation inhibition rate at the dosage of 40 μM, read-out: Hela Average inhibition rate %
Experimental: (§1) The anticancer activity of the compounds was tested using an in vitro cancer cell tests. The specific test method is as follows:
(§2) 1. Cell recovery and culture method: the cryovial was taken out from the liquid nitrogen container firstly, soaked directly in 37° C. warm water, and shaked from time to time to let it thaw as soon as possible. Then, the cryovial was transferred to a clean bench, and the lid was open. The cell suspension was taken into a centrifuge tube using a rubber-tipped dropper and more than 10 times the culture medium was added, mixed well, and centrifuged at 50 g for 5 minutes. Then, the supernatant was discarded, complete culture medium containing 10% fetal bovine serum was added to resuspend the cells, the cells was counted, the cell density was adjusted, and then inoculated into a culture bottle. The culture bottle was placed in a cell culture incubator at 5% CO2 and 37° C. The complete culture medium was replaced once the next day and the culture was continued.
(§3) 2. Cell passaging method: adherent cells in the logarithmic growth phase were placed in a clean bench, the original culture medium was discarded, and washed three times with 1×PBS. An appropriate amount of 0.25% trypsin digestion solution was added to moisten the cells, and then the trypsin solution was aspirated. The cells were placed in a cell culture incubator at 5% CO2 and 37° C. for digestion for a suitable time, and observed under a microscope. When 90% of the cells become round, the cells were moved immediately to the clean bench and complete culture medium was added to terminate digestion. Then, the cells were dislodged by pipetting up and down with a rubber-tipped dropper to single cells. The cells were counted, and the cell density was adjusted. The cells were inoculated into a suitable culture bottle or dish, added enough complete culture medium, and placed in a cell culture incubator at 5% CO2 and 37° C. for static culture.
(§4) For suspension cells in the logarithmic phase, the original culture medium was directly centrifuged at 50 g for 5 minutes, the supernatant was discarded, and the cells were washed once with PBS and centrifuged. After discarding the supernatant, the complete culture medium was added and the cells were dispersed using a rubber-tipped dropper. The cells are counted, and the cell density was adjusted. The cells were inoculated into appropriate culture bottles or culture dishes, and sufficient complete culture medium was added, and the cells were cultured in a cell culture incubator at 5% CO2 and 37° C.
(§5) 3. Cell proliferation assay: cells in good state in logarithmic phase were taken and appropriate amount of the cells was inoculated into 96-well plates according to the cell passage treatment method, with each well containing 180 μL complete medium. After the cells growth was recovered and the number of cells in each well is 5000±500, a drug was added for treatment.
(§6) After drug treatment during the experimental time, MTT solution with a final concentration of 0.5 mg/mL was added to each well, and placed in a cell culture incubator at 5% CO2 and 37° C. to allow a fully reaction of MTT with cells. After 4 hours, the solution in the 96-well plate was discarded, 100 µL of DMSO was added, and shaked to dissolve the formazan precipitated at the bottom of the plate, and the absorbance value of samples was detected at a wavelength of 570 nm using a microplate reader. Calculation method of cell viability rate:
Table 4 lists some compounds that have inhibitory effects against both of bacteria and cancer cells. In the table, the inhibitory effects against cancer cells are shown: the average proliferation inhibition rate (%) against cancer cells at the dosage of 40 μM.

[2] = system: E. coli ATCC 25922; experiment: In vitro antibacterial activity assay (MIC, broth dilution); format: cell-based; conditions: Escherichia coli, ATCC25922
From the text: (§7) The method used to indicate the activity of the compounds in this example is to record the minimum inhibitory concentration (MIC) of the compounds against bacteria. The specific experimental method is as follows:
(§8) 1. The bacterial liquid cultured from a single colony was taken, and diluted into autoclaved CAMHB broth in a ratio of 1:1000, and mixed well.
(§9) 2. The prepared drug solution was filtered through a sterile 0.22 µm syringe filter and placed in a sterile EP tube for later use.
(§10) 3. A 96-well plate was taken, and 20 µL of drug solution ([…]) was added to each well in the first column of the 96-well plate. Then, 180 µL of diluted bacterial liquid was added and mixed well (Perform 3 replicate rows for each drug).
(§11) The same process was performed for the hydrochloride drug.
(§12) 4. 100 μL of diluted bacterial liquid was added to each well in the remaining 11 columns of the 96-well plate. Drugs are the same as above.
(§13) 5. Serial dilution: 100 μL of liquid was taken from the first column to the second column, mixed well, then 100 μL of liquid was taken from the second column to the third column, mixed well, and so on, sequentially diluting down to the last column (column 12). After mixing column 12 well, 100 μL of liquid thereof was discarded. The drug concentration in each well was decreased by two-fold serially (the concentration in the first well is 40 μg/mL).
(§14) 6. Blank CAMHB broth without added bacteria liquid was added to 3 blank wells in the 96-well plate, as negative control.
(§15) 7. The diluted bacterial liquid was added to 3 blank wells in the 96-well plate, as positive control.
(§16) 8. Incubated at 37° C. for 16 hours.
(§17) 9. Results reading: the minimum inhibitory concentration is the minimum drug concentration at which no bacterial growth is visible to the naked eye and without turbidity.

[3] = system: S. aureus ATCC 43300; experiment: as above; format: cell-based; conditions: Staphylococcus aureus
From the text: as §7, §8, §9, §10, §11, §12, §13, §14, §15, §16, §17

[4] = system: Staphylococcus aureus ATCC43300; experiment: Systemic blood infection animal model; format: in vivo, mice; conditions: for number of colonies of liver and kidney: 3 times a day, 7 days
Experimental: (2) Sterile phosphate buffered saline (PBS) was used to prepare a 1×10^7 CFU/mL Staphylococcus aureus ATCC43300 bacterial suspension for later use; the drug dosage required for mice was calculated for each group, and solutions of Example 34 and solvent for gavage (400 or 200 μL of Tween 80 was mixed with Example 34, grinded with an agate mortar until it became transparent, and then 0.5% sodium carboxymethyl cellulose solution was added to reach the required concentration and volume of the test drug) were prepared for later use.
(3) Except for the blank group, 100 μL of the bacterial suspension prepared in step 2 was injected into the tail vein of each mouse.
(4) 2 hours after the challenge, the drugs prepared in step 2 were administered by oral gavage according to the groups, 3 times a day, 200 uL each time, with an interval of 8 hours, for a total of 7 days. Mice were administered by oral gavage with the drug solvent for the model group and the blank group.
(5) 8 h after the last administration, mice were euthanized by cervical dislocation, disinfected with 75% alcohol, and then necropsied under sterile conditions. The kidneys and livers were harvested, observed and photographed, and the weight was recorded.
(6) The kidneys and livers were placed in a sterile glass grinder and sterile PBS in a volume ten times the weight of the organs was added and grinded. The grinding solutions were taken out, 10-fold serially diluted, smeared to a TSA solid culture medium, and incubated at 37° C. for 16 hours, then the colonies were counted. The number of colonies of the organs was calculated to evaluate the therapeutic effect.

[5] = system: Staphylococcus aureus ATCC43300; experiment: Resistance test of bacteria against compounds (serial induction, 21 days); format: cell-based
Experimental: This example provides a resistance test of bacteria against compounds, and the specific experimental method is as follows.
1. […] It was ensured that among the 6 final concentrations of the drug diluted into the wells, some were higher than the original MIC of the bacteria and some were lower than the original MIC of the bacteria.
2. Preparation of bacterial liquid: 10 mL of culture medium was taken and added to a sterilized plate using a pipette, then 100 µL of the above-mentioned passaged bacterial liquid was added, and mixed well for later use.
3. The above-mentioned diluted bacterial liquid was taken and added to a 96-well plate using a pipette, 180 μL per well, 3 wells per group, 6 groups in total. 20 μL of drug solution was added to each well (note: it is necessary to replace the pipette tip each time the drug is added), so that the final drug concentrations were […], respectively. The well with 200 μL of diluted bacterial liquid was used as the positive control well, and the well with 200 μL of culture medium was used as the negative control well.
The test object was Staphylococcus aureus (S. aureus).

[6] = system: P. aeruginosa ATCC 27853; experiment: In vitro antibacterial activity assay (MIC, broth dilution); format: cell-based; conditions: Pseudomonas aeruginosa, ATCC27853; Table 2; read-out: G- bacteria MIC P. aeruginosa ATCC 27853
From the text: as §7, §8, §9, §10, §11, §12, §13, §14, §15, §16, §17

[7] = system: E. feacium ATCC 700221; experiment: as above; format: cell-based; conditions: read-out: G+ bacteria MIC E. feacium ATCC 700221
From the text: as §7, §8, §9, §10, §11, §12, §13, §14, §15, §16, §17

[8] = system: A. baumannii ATCC 17978; experiment: as above; format: cell-based; conditions: Acinetobacter baumannii, ATCC17978; Table 2; read-out: G- bacteria MIC A. baumannii ATCC 17978
From the text: as §7, §8, §9, §10, §11, §12, §13, §14, §15, §16, §17

[9] = system: human bladder transitional cell carcinoma cell T24; experiment: In vitro anticancer activity test (MTT cell proliferation); format: cell-based; conditions: T-24
Experimental: as §1, §2, §3, §4

[10] = system: human epidermal carcinoma cell A431; experiment: as above; format: cell-based; conditions: A-431
Experimental: as §1, §2, §3, §4

[11] = system: human acute monocytic leukemia cell THP-1; experiment: as above; format: cell-based
Experimental: as §1, §2, §3, §4, §5
as §6, with “rate: […]” for “rate:”

[12] = system: human renal cancer cell OS-RC-2; experiment: as above; format: cell-based
Experimental: as §1, §2, §3, §4, §5
as §6, with “rate: […]” for “rate:”

[13] = system: human liver cancer cell BLE-7402; experiment: as above; format: cell-based
Experimental: as §1, §2, §3, §4, §5
as §6, with “rate: […]” for “rate:”

[14] = system: human acute myeloid leukemia cell MOLM-13; experiment: as above; format: cell-based
Experimental: as §1, §2, §3, §4, §5
as §6, with “rate: […]” for “rate:”

[15] = system: human Burkitt's lymphoma cell Raji; experiment: as above; format: cell-based
Experimental: as §1, §2, §3, §4, §5
as §6, with “rate: […]” for “rate:”

[16] = Table 2, read-out: G- bacteria MIC E. coli ATCC 25922
[17] = ATCC43300, Table 1, read-out: G+ bacteria MIC S. aureus ATCC 43300

Structure (SMILES): O=C(O)c1cn(C2CC2)c2cc(N3CCNCC3)c(F)cc2c1=O [Ciprofloxacin, reference compound]
inhibition at 40 µM [1]: ≤ 10%
MIC ([2]; Table 4, read-out: E. coli ATCC 25922 MIC): ≤ 1 µg/mL
MIC ([3]; ATCC43300, Table 4, read-out: S. aureus ATCC 43300 MIC): ≤ 1 µg/mL
number of colonies of liver and kidney ([4]; 4 mg/kg oral gavage): not apparent
resistance of bacteria in the subsequent culture ([5]; S. aureus ATCC43300, 21 days): increased rapidly
MIC at the end of the resistance experiment ([5]; period of 21 days, S. aureus ATCC43300): 128 µg/mL

Structure (SMILES): COc1c(-c2ccc(NC(=O)C(F)(F)F)c(C#N)c2)c(F)cc2c(=O)c(C(=O)O)cn(C3CC3)c12 [Example 8, 7-(3-cyano-4-(2,2,2-trifluoroacetamido)phenyl)-1-cyclopropyl-6-fluoro-8-methoxy-4-oxo-1,4-dihydroquinolin-3-carboxylic acid]
MIC [2, 16]: ≤ 0.1 µg/mL
MIC [3, 17]: ≤ 0.1 µg/mL
MIC [6]: 0.1 to 1 µg/mL (≈ 0.204 to 2.04 µM)
MIC [7]: 1 to 8 µg/mL (≈ 2.04 to 16.3 µM)
MIC [8]: 0.1 to 1 µg/mL (≈ 0.204 to 2.04 µM)

Structure (SMILES): O=C(O)c1cn(C2CC2)c2cc(-c3ccc(S(=O)(=O)NCCCl)cc3)c(F)cc2c1=O [Example 15, 7-(4-(N-(2-chloroethyl)sulfamoyl)phenyl)-1-cyclopropyl-6-fluoro-4-oxo-1,4-dihydroquinolin-3-carboxylic acid]
MIC ([3]; ATCC43300, read-out: G+ bacteria MIC S. aureus ATCC 43300): ≤ 0.1 µg/mL
MIC [7]: > 8 µg/mL

MIC [2, 16]: ≤ 0.1 µg/mL
MIC [3, 17]: ≤ 0.1 µg/mL
MIC [6]: 0.1 to 1 µg/mL (≈ 0.223 to 2.23 µM)
MIC ([7]; Table 1): 1 to 8 µg/mL (≈ 2.23 to 17.9 µM)
MIC [8]: 0.1 to 1 µg/mL (≈ 0.223 to 2.23 µM)
Structure (SMILES): O=C(O)c1cn(C2CC2)c2nc(-c3ccc(S(=O)(=O)NCCO)cc3)c(F)cc2c1=O [Example 18, 1-cyclopropyl-6-fluoro-7-(4-(N-(2-hydroxyethyl)aminosulfonyl)phenyl)-4-oxo-1,4-dihydro-1,8-naphthyridine-3-carboxylic acid]

MIC [3, 17]: ≤ 0.1 µg/mL
MIC ([7]; Table 1): > 8 µg/mL
Structure (SMILES): CCCCCNS(=O)(=O)c1ccc(-c2c(F)cc3c(=O)c(C(=O)O)cn(C4CC4)c3c2Cl)cn1 [Example 20, 8-chloro-1-cyclopropyl-6-fluoro-4-oxo-7-(6-(N-pentylaminosulfonyl)pyridine-3-yl)-1,4-dihydroquinolin-3-carboxylic acid]

Structure (SMILES): O=C(O)c1cn(C2CC2)c2c(Cl)c(-c3ccc(S(=O)(=O)NCCCC(F)(F)F)nc3)c(F)cc2c1=O [Example 34, 8-chloro-1-cyclopropyl-6-fluoro-4-oxo-7-(6-(N-(4,4,4-trifluorobutyl)sulfamoyl)pyridin-3-yl)-1,4-dihydroquinolin-3-carboxylic acid]
IC50 [9]: 1 to 10 µM
IC50 [10]: 1 to 10 µM
number of colonies of liver and kidney ([4]; 1 mg/kg oral gavage): significant statistical difference from the control group
number of colonies of liver and kidney ([4]; 4 mg/kg oral gavage): good antibacterial effect
antibacterial effect in the liver and kidney (number of colonies of organs) ([4]; compared with the positive drug ciprofloxacin): very significant antibacterial effect
initial MIC compared with marketed drugs ([5]; start of resistance test, S. aureus ATCC43300): superior to the marketed drugs ciprofloxacin and vancomycin
IC50 [11]: 1 to 10 µM
IC50 [12]: 1 to 10 µM
IC50 [13]: 1 to 10 µM
IC50 [14]: 1 to 10 µM

Structure (SMILES): O=C(O)c1cn(C2CC2)c2cc(N3CCNCC3)c(F)cc2c1=O [Reference compound 2 (Ciprofloxacin), reference compound]
IC50 [11]: > 100 µM
IC50 [12]: > 100 µM
IC50 [13]: > 100 µM
IC50 [14]: > 100 µM

IC50 [15]: ≥ 40 µM
Structure (SMILES): Cc1c(-c2cnc(N)nc2)c(F)cc2c(=O)c(C(=O)O)cn(C3CC3)c12 [compound 1, reference compound]
